Test [1] can be described thus: Inhibition of IDH2 R172S mutant (unknown origin). Also on record: species or system Homo sapiens.
Test [2] is described as follows: Downregulation of HoxA9 expression in human AML3 cells. The class given is functional, cell-based.
The target in test [3] is Isocitrate dehydrogenase [NADP], mitochondrial (Homo sapiens, UniProt P48735, R140Q). Description: Inhibition of FLAG-tagged IDH2 R140Q mutant (unknown origin) extracted from baculovirus infected Sf9 cells.
A further test concerns U-87 MG. Description: Antiproliferative activity against human U87. The class given is functional, cell-based, U-87MG ATCC.
A further test has as its system HCT-116. Put plainly: Antiproliferative activity against human HCT-116 cells. It is filed as functional, cell-based.
For another test, the system named is TF-1. Put plainly: Antiproliferative activity against human TF-1 cells. The class given is functional, cell-based.
For test [4], the target named is Isocitrate dehydrogenase [NADP], mitochondrial (Homo sapiens, UniProt P48735, R172K). Put plainly: Inhibition of FLAG-tagged IDH2 R172K mutant (unknown origin) extracted from baculovirus infected Sf9 cells.

Structures are written as SMILES.

Sequence of Isocitrate dehydrogenase [NADP], mitochondrial (Homo sapiens, UniProt P48735, R172K) (P48735 40-452 R172K limits assumed): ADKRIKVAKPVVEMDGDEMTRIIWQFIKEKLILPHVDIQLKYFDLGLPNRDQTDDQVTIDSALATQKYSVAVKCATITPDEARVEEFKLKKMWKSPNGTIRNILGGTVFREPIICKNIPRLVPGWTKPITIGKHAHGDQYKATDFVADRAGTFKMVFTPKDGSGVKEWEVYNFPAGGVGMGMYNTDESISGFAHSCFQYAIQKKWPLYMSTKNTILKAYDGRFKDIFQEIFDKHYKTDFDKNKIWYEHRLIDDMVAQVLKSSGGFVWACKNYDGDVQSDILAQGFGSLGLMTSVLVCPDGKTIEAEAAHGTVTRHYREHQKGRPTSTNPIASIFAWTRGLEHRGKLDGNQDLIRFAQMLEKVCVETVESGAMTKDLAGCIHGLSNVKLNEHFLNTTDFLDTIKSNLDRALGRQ
Sequence of Isocitrate dehydrogenase [NADP], mitochondrial (Homo sapiens, UniProt P48735, R140Q) (P48735 40-452 R140Q limits assumed): as the sequence (P48735 40-452 R172K limits assumed) above, with R101Q, K133R counted along it

For `C[C@H](O)c1cccc(NC(=O)c2nn(Cc3ccc(F)cc3)c3c2CN(C(=O)c2ccc[nH]2)C[C@H]3C)c1`, the IC50 (in general, the midpoint of a concentration-inhibition curve) in test [1] came to 1030 nM.
As to `C[C@H]1C[C@@H](n2c(Nc3ccc(OC(F)(F)F)cc3)nc3cc(CCC(=O)O)ccc32)CC(C)(C)C1` [BAY1436032], inhibition in test [2] was half-maximal at 60 nM (IC50). In other words, the double-digit nanomolar range.
For `CC(C)(O)CNc1nc(Nc2ccnc(C(F)(F)F)c2)nc(-c2cccc(C(F)(F)F)n2)n1` [ENASIDENIB], the concentration for half-maximal inhibition (IC50) in test [3] was determined as 320 nM; with U-87 MG, 10 nM; with HCT-116, 530 nM; with TF-1, 20 nM; in test [4], 200 nM.
